{"source": "DBAASP", "assay_in_all_cases": "≥ marks a high value that may be exact or a test limit, other limits are often not marked, values filed in µg/mL are converted to µM", "key": {"Staphylococcus aureus": {"system": "Staphylococcus aureus"}, "Escherichia coli": {"system": "Escherichia coli"}, "Saccharomyces cerevisiae": {"system": "Saccharomyces cerevisiae"}, "[1]": {"system": "Escherichia coli O157:H7 ATCC 43895"}, "Fusarium verticillioides": {"system": "Fusarium verticillioides"}, "[2]": {"system": "Aspergillus fumigatus KCTC 6145"}, "Trichosporon beigelii": {"system": "Trichosporon beigelii"}, "[3]": {"system": "Staphylococcus epidermidis"}, "[4]": {"system": "Candida albicans KCTC 7270"}, "Salmonella typhimurium": {"system": "Salmonella typhimurium"}, "[5]": {"system": "Listeria monocytogenes KCTC 3710"}, "Pseudomonas aeruginosa": {"system": "Pseudomonas aeruginosa"}, "Proteus vulgaris": {"system": "Proteus vulgaris"}, "[6]": {"system": "Aspergillus flavus KCTC 9471"}, "Botrytis cinerea": {"system": "Botrytis cinerea"}, "Bacillus subtilis": {"system": "Bacillus subtilis"}, "[7]": {"system": "Candida albicans ATCC 10231"}, "Candida krusei CBS 573": {"system": "Candida krusei CBS 573"}, "[8]": {"system": "Saccharomyces cerevisiae SZMC 0644"}, "[9]": {"system": "Candida parapsilosis CBS 604"}, "[10]": {"system": "Staphylococcus aureus WKZ-2"}, "[11]": {"system": "Escherichia coli ATCC 25922"}, "[12]": {"system": "Staphylococcus aureus ATCC 6538P"}, "[13]": {"system": "Enterococcus faecalis ATCC 29212"}, "[14]": {"system": "Klebsiella pneumoniae ATCC 700603"}, "[15]": {"system": "Staphylococcus aureus ATCC 29213"}, "[16]": {"system": "Bacillus subtilis subsp. spizizenii"}, "[17]": {"system": "Pseudomonas aeruginosa PAO1"}, "[18]": {"system": "Staphylococcus aureus ATCC BAA-41"}, "[19]": {"system": "Acinetobacter baumannii ATCC 19606"}, "[20]": {"system": "Enterococcus faecalis ATCC BAA-2316"}, "[21]": {"system": "Enterococcus faecalis ATCC BAA-2365"}, "[22]": {"system": "Staphylococcus aureus ATCC 43300"}, "[23]": {"system": "Pseudomonas aeruginosa ATCC 27853"}, "[24]": {"system": "Enterococcus faecalis ATCC 19433"}, "[25]": {"system": "Staphylococcus aureus ATCC 33591"}, "[26]": {"system": "Pseudomonas aeruginosa ATCC BAA-2114"}, "[27]": {"system": "Staphylococcus epidermidis ATCC 12228"}, "[28]": {"system": "Escherichia coli ATCC BAA-2452"}, "[29]": {"system": "Klebsiella pneumoniae ATCC 13883"}, "Acinetobacter baumannii": {"system": "Acinetobacter baumannii"}, "[30]": {"system": "Candida albicans ATCC 90028"}, "[31]": {"system": "Cryptococcus neoformans ATCC 208821"}, "Klebsiella pneumoniae": {"system": "Klebsiella pneumoniae"}, "[32]": {"system": "Klebsiella pneumoniae ATCC BAA-2146"}, "[33]": {"system": "Bacillus subtilis ATCC 6051"}}}
{"smiles": "CC[C@H](C)[C@H](NC(=O)[C@H](CCCCN)NC(=O)[C@H](CO)NC(=O)[C@H](Cc1ccccc1)NC(=O)[C@H](CC(C)C)NC(=O)[C@H](CCCCN)NC(=O)[C@H](CCC(=O)O)NC(=O)[C@H](CC(C)C)NC(=O)[C@H](CCCN=C(N)N)NC(=O)[C@H](CCCCN)NC(=O)[C@H](CO)NC(=O)[C@@H](NC(=O)[C@H](CCCCN)NC(=O)[C@H](CCCCN)NC(=O)[C@H](C)N)C(C)C)C(=O)N[C@@H](CCC(N)=O)C(=O)N[C@@H](CC(N)=O)C(=O)N[C@@H](CC(=O)O)C(=O)N[C@@H](CCCCN)C(N)=O", "note": "[AKKVSKRLEKLFSKIQNDK]", "values": [{"measurement": "MIC", "setting": "Staphylococcus aureus", "result": "> 12.5", "unit": "µM"}, {"measurement": "MIC", "setting": "Escherichia coli", "result": 6.25, "unit": "µM"}, {"measurement": "MIC", "setting": "Saccharomyces cerevisiae", "result": 25, "unit": "µM"}, {"measurement": "MIC", "setting": "[1]", "result": 6.25, "unit": "µM"}, {"measurement": "MIC", "setting": "Fusarium verticillioides", "result": "≥ 50", "unit": "µM"}, {"measurement": "MIC", "setting": "[2]", "result": "≥ 50", "unit": "µM"}, {"measurement": "MIC", "setting": "Trichosporon beigelii", "result": 12.5, "unit": "µM"}, {"measurement": "MIC", "setting": "[3]", "result": 12.5, "unit": "µM"}, {"measurement": "MIC", "setting": "[4]", "result": 25, "unit": "µM"}, {"measurement": "MIC", "setting": "Salmonella typhimurium", "result": 12.5, "unit": "µM"}, {"measurement": "MIC", "setting": "[5]", "result": 12.5, "unit": "µM"}, {"measurement": "MIC", "setting": "Pseudomonas aeruginosa", "result": 12.5, "unit": "µM"}, {"measurement": "MIC", "setting": "Proteus vulgaris", "result": 12.5, "unit": "µM"}, {"measurement": "MIC", "setting": "[6]", "result": "≥ 50", "unit": "µM"}, {"measurement": "MIC", "setting": "Botrytis cinerea", "result": "≥ 50", "unit": "µM"}, {"measurement": "MIC", "setting": "Bacillus subtilis", "result": 3.13, "unit": "µM"}]}
{"smiles": "CC[C@H](C)[C@H](NC(=O)[C@@H]1CSSC[C@H](NC(=O)[C@H](CCCCN)NC(=O)CN)C(=O)N[C@@H](CCC(=O)O)C(=O)N[C@@H](Cc2c[nH]c3ccccc23)C(=O)N[C@@H](CCC(N)=O)C(=O)NCC(=O)NCC(=O)N[C@@H](CCC(N)=O)C(=O)N[C@@H](CC(C)C)C(=O)N[C@@H](CC(N)=O)C(=O)N1)C(=O)N[C@@H](C)C(=O)N[C@H](C(=O)O)[C@@H](C)O", "note": "[GKCEWQGGQLNCIAT]", "values": [{"measurement": "MIC", "setting": "[7]", "result": "> 62.2", "unit": "µM"}, {"measurement": "MIC", "setting": "Candida krusei CBS 573", "result": "≥ 62.2", "unit": "µM"}, {"measurement": "MIC", "setting": "[8]", "result": "≥ 62.2", "unit": "µM"}, {"measurement": "MIC", "setting": "[9]", "result": "≥ 62.2", "unit": "µM"}]}
{"smiles": "CC[C@H](C)[C@H](N)C(=O)N[C@@H](CCCCN)C(=O)N[C@@H](Cc1ccc(O)cc1)C(=O)N[C@@H](CC(C)C)C(=O)N[C@@H](CC(C)C)C(=O)N[C@H](C(=O)N[C@@H](CCCCN)C(=O)N[C@@H](CC(C)C)C(=O)N[C@@H](CCC(N)=O)C(=O)NCC(=O)N[C@@H](C)C(=O)N[C@@H](CO)C(=O)N[C@@H](CCC(N)=O)C(=O)N[C@@H](CCCCN)C(=O)N[C@H](C(=O)N[C@H](C(=O)N[C@H](C(=O)N[C@@H](CC(C)C)C(=O)N[C@@H](CCSC)C(=O)N[C@@H](CC(C)C)C(=O)N[C@@H](CCCN=C(N)N)C(=O)N[C@@H](CCCN=C(N)N)C(=O)N[C@@H](CC(N)=O)C(=O)O)[C@@H](C)O)[C@@H](C)CC)[C@@H](C)O)C(C)C", "note": "[IKYLLVKLQGASQKTITLMLRRN]", "values": [{"measurement": "MIC", "setting": "[10]", "result": 3.16, "unit": "µM"}, {"measurement": "MIC", "setting": "[11]", "result": 12.6, "unit": "µM"}, {"measurement": "MIC", "setting": "[12]", "result": 6.32, "unit": "µM"}, {"measurement": "MIC", "setting": "[13]", "result": 25.3, "unit": "µM"}, {"measurement": "MIC", "setting": "[14]", "result": 50.6, "unit": "µM"}, {"measurement": "MIC", "setting": "[15]", "result": 3.16, "unit": "µM"}, {"measurement": "MIC", "setting": "[16]", "result": "≥ 50.6", "unit": "µM"}, {"measurement": "MIC", "setting": "[17]", "result": 50.6, "unit": "µM"}]}
{"smiles": "CC[C@H](C)[C@H](NC(=O)[C@H](CCCN=C(N)N)NC(=O)[C@H](CCC(=O)O)NC(=O)[C@@H](NC(=O)[C@@H](NC(=O)[C@H](CCCN=C(N)N)NC(=O)[C@H](CCCCN)NC(=O)[C@H](Cc1ccccc1)NC(=O)[C@H](CCC(=O)O)NC(=O)[C@H](CCCCN)NC(=O)CNC(=O)[C@@H](NC(=O)[C@@H](NC(=O)[C@@H]1CCCN1C(=O)[C@H](CO)NC(=O)[C@H](CC(C)C)NC(=O)[C@H](CCCCN)NC(=O)[C@H](CCCCN)NC(=O)[C@H](Cc1ccccc1)NC(=O)[C@H](CC(C)C)NC(=O)[C@H](CCCCN)NC(=O)[C@H](CCCCN)NC(=O)[C@H](Cc1ccccc1)NC(=O)[C@@H](N)CCCCN)C(C)C)[C@@H](C)CC)[C@@H](C)CC)C(C)C)C(=O)N[C@@H](CCCCN)C(=O)N[C@@H](CCCN=C(N)N)C(=O)N[C@@H](Cc1ccccc1)C(=O)N[C@@H](CC(C)C)C(=O)N[C@@H](CCCN=C(N)N)C(=O)O", "note": "[KFKKLFKKLSPVIGKEFKRIVERIKRFLR]", "values": [{"measurement": "MIC", "setting": "[18]", "result": 10, "unit": "µM"}, {"measurement": "MIC", "setting": "[19]", "result": 10, "unit": "µM"}, {"measurement": "MIC", "setting": "[20]", "result": 5, "unit": "µM"}, {"measurement": "MIC", "setting": "[21]", "result": 5, "unit": "µM"}, {"measurement": "MIC", "setting": "[11]", "result": 10, "unit": "µM"}, {"measurement": "MIC", "setting": "[22]", "result": 10, "unit": "µM"}, {"measurement": "MIC", "setting": "[23]", "result": 20, "unit": "µM"}, {"measurement": "MIC", "setting": "[24]", "result": 15, "unit": "µM"}, {"measurement": "MIC", "setting": "[15]", "result": 20, "unit": "µM"}, {"measurement": "MIC", "setting": "[25]", "result": 10, "unit": "µM"}, {"measurement": "MIC", "setting": "[26]", "result": 25, "unit": "µM"}, {"measurement": "MIC", "setting": "[27]", "result": 10, "unit": "µM"}, {"measurement": "MIC", "setting": "[28]", "result": 10, "unit": "µM"}, {"measurement": "MIC", "setting": "[29]", "result": 2.5, "unit": "µM"}]}
{"smiles": "CC[C@H](C)[C@@H]1NC(=O)CNC(=O)[C@H](CCCN=C(N)N)NC(=O)[C@H](Cc2ccc(O)cc2)NC(=O)[C@@H](NC(=O)[C@@H](NC(=O)[C@H](CCCN=C(N)N)NC(=O)[C@H](Cc2ccccc2)NC(=O)[C@H](C)NC(=O)[C@H](Cc2c[nH]c3ccccc23)NC(=O)[C@@H](N)CCCCN)C(C)C)CSSC[C@@H](C(=O)N[C@@H](Cc2ccc(O)cc2)C(=O)N[C@@H](CCCN=C(N)N)C(=O)N[C@@H](CCCN=C(N)N)C(=O)N[C@@H](CO)C(=O)N[C@@H](CCCN=C(N)N)C(=O)O)NC1=O", "note": "[KWAFRVCYRGICYRRSR]", "values": [{"measurement": "MIC", "setting": "Acinetobacter baumannii", "result": 7.21, "unit": "µM"}, {"measurement": "MIC", "setting": "[19]", "result": "> 7.21", "unit": "µM"}, {"measurement": "MIC", "setting": "[30]", "result": 7.21, "unit": "µM"}, {"measurement": "MIC", "setting": "[31]", "result": 1.8, "unit": "µM"}, {"measurement": "MIC", "setting": "Klebsiella pneumoniae", "result": "> 7.21", "unit": "µM"}, {"measurement": "MIC", "setting": "[11]", "result": 1.8, "unit": "µM"}, {"measurement": "MIC", "setting": "[22]", "result": "> 7.21", "unit": "µM"}, {"measurement": "MIC", "setting": "[32]", "result": 7.21, "unit": "µM"}, {"measurement": "MIC", "setting": "[14]", "result": 7.21, "unit": "µM"}, {"measurement": "MIC", "setting": "[23]", "result": "> 7.21", "unit": "µM"}, {"measurement": "MIC", "setting": "[33]", "result": 0.225, "unit": "µM"}, {"measurement": "MIC", "setting": "Pseudomonas aeruginosa", "result": "> 7.21", "unit": "µM"}, {"measurement": "MIC", "setting": "[29]", "result": 7.21, "unit": "µM"}]}
